Measured values reported in publication PMC11284787, “Ligand-Directed Labeling of the Adenosine A1 Receptor in Living Cells” (Journal of Medicinal Chemistry, 2024).

Tested on: nontransfected HEK293 cells
Assay: Confocal assessment of non-specific labelling in non-transfected HEK293T cells
Format: cell-based, human
Details: 125 nM; cells do not express the A1AR
Text: Having investigated the molecular pharmacology of 11 and 12 in a series of in vitro assays, we sought to apply the LD probes for studying A1AR localization and dynamics in living cells. To this end, LD probes 11 and 12 were initially used in confocal microscopy studies to test their ability to label and allow visualization of the SNAP-hA1AR in living HEK293T cells (Figure 6). […] With both probes, the fluorescence labeling colocalized with SNAP-hA1AR labeled with AF488 (Figure 6A,C top frames).
Supplementary Figures: Pharmacology
Figure S1. Fluorescence spectra of SulfoCy5-conjugated methyltetrazine in the absence or in the presence of probe 12 (PEG-TCO). “Turn-on” type reaction of tetrazine (Met-TetSulfoCy5) with PEGylated trans-cyclooctene (PEG-TCO)-labelled 12. Fluorescence excitation and emission spectra measured in HBSS with the corresponding tetrazineSulfoCy5 [100 nM] without, then with 12 (PEG-TCO) [1 µM] (allowed to react for 10 min prior detection). Exc maxima (Met-TetSulfoCy5 + PEG-TCO) = 1.80-fold increase compared to Met-TetSulfoCy5 alone; Em maxima (Met-TetSulfoCy5 + TCO) = 1.40-fold; Excitation and emission fluorescence spectra (1 nm step width) were measured were recorded on a CLARIOstar plate reader (BMG Labtech).
Figure S2. Assessment of 11 non-specific labelling performed in non-transfected live HEK293T cells. Left hand frame corresponds to SulfoCy5 channel. […]

CCCCn1c(=O)c2[nH]c(C34CCC(C(=O)NCCNC(=O)CCNC(=O)c5ccc(OC(=O)CCCCC[N+]6=C(/C=C/C=C/C=C7/N(C)c8ccc(S(=O)(=O)O)cc8C7(C)C)C(C)(C)c7cc(S(=O)(=O)[O-])ccc76)c(F)c5)(CC3)CC4)nc2n(CCCC)c1=O [Compound 11, 1-(6-(4-((3-((2-(4-(1,3-Dibutyl-2,6-dioxo-2,3,6,7-tetrahydro-1H-purin-8-yl)bicyclo[2.2.2]octane-1-carboxamido)ethyl)amino)-3-oxopropyl)carbamoyl)-2-fluorophenoxy)-6-oxohexyl)-3,3-dimethyl-2-((1E,3E)-5-((E)-1,3,3-trimethyl-5-sulfoindolin-2-ylidene)penta-1,3-dien-1-yl)-3H-indol-1-ium-5-sulfonate]
fluorescent signal in nontransfected HEK293 cells: did not produce any detectable fluorescent signal
